Measurements published in patent US20210395651A1, “COMPOUNDS STABILIZING HYDROLASES IN LIQUIDS” (BASF SE, priority 2018, published 2021).

Target: T1, Lipolase® 100L (Thermomyces lanuginosus, UniProt O59952)
T1 construct: purchased Sigma-Aldrich
T1 sequence (O59952 23-291): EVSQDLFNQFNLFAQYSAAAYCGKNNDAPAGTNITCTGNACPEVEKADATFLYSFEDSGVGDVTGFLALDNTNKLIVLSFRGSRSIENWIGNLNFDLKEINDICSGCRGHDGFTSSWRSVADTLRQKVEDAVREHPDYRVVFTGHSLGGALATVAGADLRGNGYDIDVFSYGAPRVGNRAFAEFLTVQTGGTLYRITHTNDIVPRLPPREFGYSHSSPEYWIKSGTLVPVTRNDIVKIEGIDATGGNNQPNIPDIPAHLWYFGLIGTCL
Test: Lipase storage stability in liquid formulations at 37° C. (pNP-valerate activity)
Type: biochemical, Thermomyces lanuginosa
Conditions: for lipase activity, 3 d: 3 d storage at 37° C.; for lipase activity, 7 d: 7 d storage at 37° C.; for lipase activity, 14 d: 14 d storage at 37° C.; for lipase activity, 21 d: 21 d storage at 37° C.; for lipase activity, 28 d: 28 d storage at 37° C.; for lipase activity, 35 d: 35 d storage at 37° C.; for lipase activity, T0: relative to 100% value of reference formulation at time 0
Protocol: The storage stability of Lipase was assessed at 37° C.
Base test formulations were manufactured by making base formulations I to V by mixing the components according to Table 1.
The respective component (a) or comparative compound was added, if applicable, to the respective base formulation in amounts as indicated in Table 1.
Lipase used: Lipolase® 100L (CAS-No. 9001-62-1, EC-No. 232-619-9) was purchased from Sigma-Aldrich.
The amount of lipase as provided in Table 1 refers to active protein.
Water was added to accomplish the balance to 100.
Lipolase activity at certain points in time as indicated in Table 2 was be determined by employing pNitrophenol-valerate (2.4 mM pNP-C5 in 100 mM Tris pH 8.0, 0.01% Triton X100) as a substrate. The absorption at 405 nm was measured at 20° C. every 30 seconds over 5 minutes.
The slope (absorbance increase at 405 nm per minute) of the time dependent absorption-curve is directly proportional to the activity of the lipase.
The […] activity values provided in Table 2 were calculated referring to the 100% value determined in the reference formulation at the time 0.
The nomenclature of formulations is as follows: the Roman number before the full stop characterizes the base formulation, the Arabian number the type of compound (A.# compound according to invention (component (a)); (B.#) comparative compound).

[1] = base formulation I. (Lipolase 0.2 wt%, tested compound 2.5 wt%)
[2] = base formulation II. (Lipolase 0.2 wt%, tested compound 2.5 wt%)
[3] = base formulation IV. (Lipolase 0.2 wt%, tested compound 2.0 wt%)
[4] = base formulation III. (Lipolase 0.2 wt%, tested compound 2.0 wt%)

| Compound | lipase activity, 3 d [1] [%] | lipase activity, 7 d [1] [%] | lipase activity, 14 d [1] [%] | lipase activity, 21 d [1] [%] | lipase activity, 28 d [1] [%] | lipase activity, 35 d [1] [%] | lipase activity, T0 [1] [%] | lipase activity, 3 d [2] [%] | lipase activity, 7 d [2] [%] | lipase activity, 14 d [2] [%] | lipase activity, 21 d [2] [%] | lipase activity, 28 d [2] [%] | lipase activity, 35 d [2] [%] | lipase activity, T0 [2] [%] | lipase activity, 3 d [3] [%] | lipase activity, 7 d [3] [%] | lipase activity, 14 d [3] [%] | lipase activity, 21 d [3] [%] | lipase activity, 28 d [3] [%] | lipase activity, 35 d [3] [%] | also measured |
| --- | --- | --- | --- | --- | --- | --- | --- | --- | --- | --- | --- | --- | --- | --- | --- | --- | --- | --- | --- | --- | --- |
| CC(=O)OCC(COC(C)=O)OC(C)=O [B.4, glyceroltriacetate (triacetine), reference compound] | 91 | 84 | 72 | 56 | 45 | 39 | 98 | 87 | 77 | 67 | 56 | 42 | 35 | 95 | 91 | 82 | 73 | 59 | 50 | 46 | lipase activity, T0 [3]: 97% |
| Diethylcitrate [A.7] | 97 | 91 | 85 | 81 | 76 | 69 | 99 | 94 | 91 | 86 | 82 | 77 | 72 | 99 | 95 | 93 | 88 | 85 | 80 | 74 | lipase activity, 3 d [4]: 96%; lipase activity, 7 d [4]: 93%; lipase activity, 14 d [4]: 87%; lipase activity, 21 d [4]: 83%; lipase activity, 28 d [4]: 77%; lipase activity, 35 d [4]: 72%; lipase activity, T0 [4]: 97%; lipase activity, T0 [3]: 97% |
